Measurements from patent publication US8323919B2, “Assay methods for identifying glycogen synthase kinase 3 modulators” (PerkinElmer BioSignal, Inc., priority 2009, dated 2012).

Molecular target: T1, GSK3β (Homo sapiens, UniProt P49841)
T1 construct: purchased Carna Biosciences
Experiment: LANCE Ultra TR-FRET kinase assay: phosphorylation of non-primed ULight-labeled 4E-BP1-derived peptide by GSK3β in the presence of inhibitor
Type: biochemical
Conditions: GSK3β (Carna Biosciences) 2 nM, ATP 10 μM, ULight-4E-BP1 50 nM, 60 min, DMSO 1%, inhibitor at various concentrations
Experimental: Anti-phosphorylated-4E-BP1 antibody (Thr37/46) labeled with a FRET donor is added and upon irradiation, the proximity of the FRET donor and FRET acceptor produce a signal, shown on the y-axis. The 4E-BP1-derived peptide substrate of SEQ ID No. 7 was used, modified by addition of three amino acids at both the N- and C-termini to facilitate solubilizing the peptide and labeling of the peptide with a FRET acceptor label; and
Anti-phosphorylated-4E-BP1 antibody (Thr37/46) labeled with a FRET donor is added and upon irradiation, the proximity of the FRET donor and FRET acceptor produce a signal, shown on the y-axis The 4E-BP1-derived peptide substrate of SEQ ID No. 7 was used, modified by addition of three amino acids at both the N- and C-termini to facilitate solubilizing the peptide and labeling of the peptide with a FRET acceptor label.
LANCE® Ultra assays are based on time-resolved fluorescence resonance energy transfer (TR-FRET). They use a proprietary europium chelate donor dye, W-1024 (Eu), with ULight®, a small molecular weight acceptor dye with a red fluorescent emission. In kinase assays, the binding of a Eu-labeled anti-phospho-substrate antibody to the phosphorylated ULight-labeled substrate brings donor and acceptor dye molecules into proximity. […]

T1 sequence (P49841 whole entry): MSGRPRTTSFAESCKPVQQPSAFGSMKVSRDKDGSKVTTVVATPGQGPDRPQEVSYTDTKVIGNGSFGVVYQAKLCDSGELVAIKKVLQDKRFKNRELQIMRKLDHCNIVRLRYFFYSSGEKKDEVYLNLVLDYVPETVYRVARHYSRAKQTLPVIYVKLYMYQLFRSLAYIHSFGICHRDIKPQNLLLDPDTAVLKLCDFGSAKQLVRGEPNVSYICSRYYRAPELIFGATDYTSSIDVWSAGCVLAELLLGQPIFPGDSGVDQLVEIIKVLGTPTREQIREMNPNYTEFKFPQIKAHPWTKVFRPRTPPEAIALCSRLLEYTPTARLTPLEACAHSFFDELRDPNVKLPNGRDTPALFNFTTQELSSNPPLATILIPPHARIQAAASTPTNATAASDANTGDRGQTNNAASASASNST

Row | SMILES | GSK3β activity on a 4E-BP1 GSK3 substrate
1 | Cn1cc(C2=C(c3ccc(Cl)cc3Cl)C(=O)NC2=O)c2ccccc21 [SB216763] | inhibited
2 | O=C1Cc2c([nH]c3ccc(Br)cc23)-c2ccccc2N1 [kenpaullone] | inhibited
